Paper PMC8508980, “Design, Synthesis and Anticancer Profile of New 4-(1H-benzo[d]imidazol-1-yl)pyrimidin-2-amine-Linked Sulfonamide Derivatives with V600EBRAF Inhibitory Effect” (International Journal of Molecular Sciences, 2021)

What was measured:
Assay type in all cases: cell-based, human
breast cancer cell lines = test: NCI 60 screen, sub-panel mean; settings: NCI-60, breast cancer sub-panel
Description: (§1) Anticancer profiling over a panel of 60 cancer cell lines was carried out at the National Cancer Institute (NCI), Bethesda, Maryland, USA, https://dtp.cancer.gov/discovery_development/nci-60/methodology.htm (Last visit 22 September 2021), using the standard procedure (detailed procedure is located in the Supplementary Information page 50 s).
(§2) NCI standard procedure for 60 cell lines assay
(§3) The human tumor cell lines of the cancer screening panel are grown in RPMI 1640 mediu m containing 5% fetal bovine serum and 2 mM L-glutamine. For a typical screening experiment, cells are inoculated into 96 well microtiter plates in 100 μL at plating densities ranging from 5,000 to 40,000 cells/well depending on the doubling time of individual cell lines. After cell inoculation, the microtiter plates are incubated at 37° C, 5 % CO2, 95 % air and 100 % relative humidity for 24 h prior to addition of experimental drugs.
(§4) After 24 h, two plates of each cell line are fixed in situ with TCA, to represent a measurement of the cell population for each cell line at the time of drug addition (Tz). Experimental drugs are solubilized in dimethyl sulfoxide at 400-fold the desired final maximum test concentration (10 µM) and stored frozen prior to use. At the time of drug addition, an aliquot of frozen concentrate is thawed and diluted to twice the desired final maximum test concentration with co mp lete medium containing 50 μg/ml gentamicin. Additional four, 10-fold or ½ log serial dilutions are made to provide a total of five drug concentrations plus control. Aliquots of 100 μl of these different drug dilutions are added to the appropriate microtiter wells already containing 100 μl of medium, resulting in the required final drug concentrations.
(§5) Following drug addition, the plates are incubated for an additional 48 h at 37°C, 5 % CO2, 95 % air, and 100 % relative humidity. For adherent cells, the assay is terminated by the addition of cold TCA. Cells are fixed in situ by the gentle addition of 50 μl of cold 50 % (w/v) TCA (final concentration, 10 % TCA) and incubated for 60 minutes at 4°C. The supernatant is discarded, and the plates are washed five times with tap water and air dried. Sulforhodamine B (SRB) solution (100 μl) at 0.4 % (w/v) in 1 % acetic acid is added to each well, and plates are incubated for 10 minutes at room temperature. After staining, unbound dye is removed by washing five times with 1 % acetic acid and the plates are air dried. Bound stain is subsequently solubilized with 10 mM trizma base, and the absorbance is read on an automated plate reader at a wavelength of 515 nm. For suspension cells, the methodology is the same except that the assay is terminated by fixing settled cells at the bottom of the wells by g ently adding 50 μl of 80 % TCA (final concentration, 16 % TCA). Using the seven absorbance measurements [time zero, (Tz), control growth, (C), and test growth in the presence of drug at the five concentration levels (Ti)], the percentage growth is calculated at each of the drug concentrations levels. Percentage growth inhibition is calculated as:
(§6) [(Ti-Tz)/(C-Tz)] x 100 for concentrations for which Ti>/=Tz
(§7) [(Ti-Tz)/Tz] x 100 for concentrations for which Ti<Tz.
(§8) Three dose response parameters are calculated for each experimental agent. Growth inhibition of […]
(§9) resulting in a 50% reduction in the net protein increase (as measured by SRB staining) in control cells during the drug incubation. The drug concentration resulting in total growth inhibition […]
(§10) (TGI) is calculated from Ti = Tz.

colon cancer cell lines = test: NCI 60 screen, sub-panel mean; settings: NCI-60, colon cancer sub-panel
Description: as §1, §2, §3, §4, §5, §6, §7, §8, §9, §10

leukemia cell lines = test: NCI 60 screen, sub-panel mean; settings: NCI-60, leukemia sub-panel
Description: as §1, §2, §3, §4, §5, §6, §7, §8, §9, §10

[1] = test system: non-small cell lung cancer cell lines; test: NCI 60 screen, sub-panel mean; settings: NCI-60, non-small cell lung cancer sub-panel
Description: as §1, §2, §3, §4, §5, §6, §7, §8, §9, §10

[2] = test system: ovarian cancer cell lines; test: NCI 60 screen, sub-panel mean; settings: NCI-60, ovarian cancer sub-panel
Description: as §1, §2, §3, §4, §5, §6, §7, §8, §9, §10

[3] = test system: prostate cancer cell lines; test: NCI 60 screen, sub-panel mean; settings: NCI-60, prostate cancer sub-panel
Description: as §1, §2, §3, §4, §5, §6, §7, §8, §9, §10

renal cancer cell lines = test: NCI 60 screen, sub-panel mean; settings: NCI-60, renal cancer sub-panel
Description: as §1, §2, §3, §4, §5, §6, §7, §8, §9, §10

CAKI-1 = test: NCI 60 cell line screen; settings: for activity at 10 µM: Homo sapiens, CAKI-1, Renal Cancer, read-out: Percent growth
How it was run: (§11)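 SRB read-out (515 nm) after 48 h drug exposure, 37 °C, RPMI 1640/5% FBS; five-point dilution series, top conc. 10 µM. Percent growth from Tz, control and treated absorbances; GI50 and TGI derived.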

HCT-15 = test: NCI 60 cell line screen; settings: for percent inhibition: HCT-15, NCI-60 heat map analysis; for activity at 10 µM: Homo sapiens, HCT-15, Colon Cancer, read-out: Percent growth
How it was run: as §11

HT29 = test: NCI 60 cell line screen; settings: for activity at 10 µM: Homo sapiens, HT-29, HT29, Colon Cancer, read-out: Percent growth
How it was run: as §11

K-562 = test: NCI 60 cell line screen; settings: Homo sapiens, K562; K-562, Leukemia; read-out: Percent growth
How it was run: as §11

KM12 = test: NCI 60 cell line screen; settings: for activity at 10 µM: Homo sapiens, KM12, Colon Cancer, read-out: Percent growth; for percent inhibition: KM12, NCI-60 heat map analysis
How it was run: (§12)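 Growth inhibition is expressed as percent growth versus time-zero and vehicle controls, from SRB absorbance at 515 nm. Compounds span five concentrations (max 10 µM) for 48 h in RPMI 1640 with 5% serum. TGI corresponds to Ti = Tz.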

MDA-MB-468 = test: NCI 60 cell line screen; settings: for activity at 10 µM: Homo sapiens, MDA-MB-468, Breast Cancer, read-out: Percent growth
How it was run: as §12

MOLT-4 = test: NCI 60 cell line screen; settings: for activity at 10 µM: Homo sapiens, MOLT-4, Leukemia, read-out: Percent growth
How it was run: as §12

NCI-H226 = test: NCI 60 cell line screen; settings: for activity at 10 µM: Homo sapiens, NCI-H226, Non-Small Cell Lung Cancer, read-out: Percent growth; for percent inhibition: NCI-H226, NCI-60 heat map analysis
How it was run: as §12

NCI-H460 = test: NCI 60 cell line screen; settings: for activity at 10 µM: Homo sapiens, NCI-H460, Non-Small Cell Lung Cancer, read-out: Percent growth
How it was run: as §11

OVCAR-4 = test: NCI 60 cell line screen; settings: for activity at 10 µM: Homo sapiens, OVCAR-4, Ovarian Cancer, read-out: Percent growth; for percent inhibition: OVCAR-4, NCI-60 heat map analysis
How it was run: as §12

RPMI-8226 = test: NCI 60 cell line screen; settings: for activity at 10 µM: Homo sapiens, RPMI-8226, Leukemia, read-out: Percent growth
How it was run: as §12

SK-MEL-5 = test: NCI 60 cell line screen; settings: for activity at 10 µM: Homo sapiens, SK-MEL-5, Melanoma, read-out: Percent growth; for percent inhibition: SK-MEL-5, NCI-60 heat map analysis
How it was run: as §12

T-47D = test: NCI 60 cell line screen; settings: for activity at 10 µM: Homo sapiens, T47D, Breast Cancer, read-out: Percent growth; for percent inhibition: NCI-60 heat map analysis
How it was run: as §12

U251 = test: NCI 60 cell line screen; settings: for activity at 10 µM: Homo sapiens, U-251, U251, CNS-Cancer, read-out: Percent growth
How it was run: as §11

Row | SMILES | mean percent inhibition (breast cancer cell lines) | mean percent inhibition (leukemia cell lines) [%] | mean percent inhibition [2] | mean percent inhibition [3] | activity at 10 µM (CAKI-1) [%] | activity at 10 µM (HCT-15) [%] | activity at 10 µM (HT29) [%] | activity at 10 µM (K-562) [%] | activity at 10 µM (KM12) [%] | activity at 10 µM (MDA-MB-468) [%] | activity at 10 µM (MOLT-4) [%] | activity at 10 µM (NCI-H226) [%] | activity at 10 µM (NCI-H460) [%] | activity at 10 µM (OVCAR-4) [%] | activity at 10 µM (RPMI-8226) [%] | activity at 10 µM (SK-MEL-5) [%] | percent inhibition (SK-MEL-5) [%] | activity at 10 µM (T-47D) [%] | percent inhibition (T-47D) [%] | activity at 10 µM (U251) [%] | further results
1 | O=S(=O)(NCCNc1nccc(-n2cnc3ccccc32)n1)c1ccc(C(F)(F)F)cc1 [12e, N-(2-((4-(1H-benzo [d]imidazol-1-yl)pyrimidin-2-yl)amino)ethyl)-4-(trifluoromethyl)benzenesulfonamide] | more than 60% | 60 | 40% | 40% | 43.1 | 60.7 | 68 | 40.8 | 58.7 | 26.4 | 45.2 | 62.7 | 57.8 | 28.4 | 44.9 | 8.48 | 91 | 22.3 | 77 | 42.4 | mean percent inhibition (colon cancer cell lines): 40%; mean percent inhibition [1]: 50%; mean percent inhibition (renal cancer cell lines): 45%; percent inhibition (HCT-15): around 40%; percent inhibition (KM12): around 40%; percent inhibition (MDA-MB-468; MDA-MB-468, NCI-60 heat map analysis): 74%; percent inhibition (MOLT-4; MOLT-4, NCI-60 heat map analysis): 55%; percent inhibition (NCI-H460; NCI-H460, NCI-60 heat map analysis): around 40%; percent inhibition (OVCAR-4): 71%; percent inhibition (RPMI-8226; RPMI-8226, NCI-60 heat map analysis): 55%; percent inhibition (U251; U251, NCI-60 heat map analysis): more than 50%
2 | O=S(=O)(NCCCNc1nccc(-n2cnc3ccccc32)n1)c1ccc(C(F)(F)F)cc1 [12l, N-(3-((4-(1H-benzo [d]imidazol-1-yl)pyrimidin-2-yl)amino)propyl)-4-(trifluoromethyl) benzenesulfonamide] | around 40% | 46 | around 25% | around 20% | 51.4 | 53.8 | 54.6 | 33.9 | 51.7 | 52.7 | 38.4 | 57.6 | 79.3 | 53 | 55.6 | 29.9 | 70 | 16.8 | 84 | 73.2 | mean percent inhibition (colon cancer cell lines): 30%; mean percent inhibition [1]: 30%; mean percent inhibition (renal cancer cell lines): around 30%; percent inhibition (CAKI-1; CAKI-1, NCI-60 heat map analysis): 49%; percent inhibition (HCT-15): more than 40%; percent inhibition (HT29; HT29, NCI-60 heat map analysis): more than 40%; percent inhibition (NCI-H226): around 40%
3 | O=S(=O)(NCCCNc1nccc(-n2cnc3ccccc32)n1)c1ccc(F)cc1 [12i, N-(3-((4-(1H-benzo [d]imidazol-1-yl)pyrimidin-2-yl)amino)propyl)-4-fluorobenzenesulfonamide] | around 40% | 50 | around 25% | around 20% | 71 | 82.8 | 92.8 | 37.2 | 48.9 | 50.2 | 33.2 | 64.1 | 79.7 | 44.2 | 57.8 | 2.63 | 97 | 25.5 | 75 | 93.8 | percent inhibition (KM12): around 50%; percent inhibition (NCI-H226): around 30%; percent inhibition (OVCAR-4): 56%
